# Target: Rv3712 (mycobacterial MurT) (Mycobacterium tuberculosis, UniProt I6Y4C7)
# Sequence (I6Y4C7 entry or part of it): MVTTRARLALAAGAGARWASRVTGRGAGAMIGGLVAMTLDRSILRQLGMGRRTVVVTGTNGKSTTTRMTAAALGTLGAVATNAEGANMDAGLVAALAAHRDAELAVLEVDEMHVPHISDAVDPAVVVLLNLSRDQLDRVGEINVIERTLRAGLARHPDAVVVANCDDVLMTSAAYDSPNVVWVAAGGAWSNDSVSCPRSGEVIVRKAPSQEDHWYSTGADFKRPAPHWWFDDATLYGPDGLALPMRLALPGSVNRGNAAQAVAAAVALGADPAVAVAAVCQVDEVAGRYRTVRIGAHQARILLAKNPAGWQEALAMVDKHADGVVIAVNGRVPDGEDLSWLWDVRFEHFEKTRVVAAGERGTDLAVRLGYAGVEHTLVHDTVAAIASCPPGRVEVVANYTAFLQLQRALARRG
smiles,measurement,value
Nc1ncnc2c1ncn2[C@@H]1O[C@H](COP(=O)(O)OP(=O)(O)OP(=O)(O)O)[C@@H](O)[C@H]1O [ATP],"inorganic phosphate release (PiColorLock Gold), 30 min",Rv3712 was found to be an ATPase

# — article PMC8210147, “Characterization of the MurT/GatD complex in Mycobacterium tuberculosis towards validating a novel anti-tubercular drug target” (JAC-Antimicrobial Resistance, 2021)
